Our source for the IC50 values is patent US8138175B2, “Heterocyclyl compounds” (Hoffmann-La Roche Inc., priority 2008, dated 2012).

As usually defined, the IC50 is the concentration that inhibits the measured activity by half.

This assay addresses T1, human chemokine receptor 2 isoform B (Homo sapiens, UniProt P41597).
T1 construct: host or cells: CHOK1-CCR2B-A5 (CHO-K1) cells
T1 sequence (P41597 1-360 isoform P41597-2): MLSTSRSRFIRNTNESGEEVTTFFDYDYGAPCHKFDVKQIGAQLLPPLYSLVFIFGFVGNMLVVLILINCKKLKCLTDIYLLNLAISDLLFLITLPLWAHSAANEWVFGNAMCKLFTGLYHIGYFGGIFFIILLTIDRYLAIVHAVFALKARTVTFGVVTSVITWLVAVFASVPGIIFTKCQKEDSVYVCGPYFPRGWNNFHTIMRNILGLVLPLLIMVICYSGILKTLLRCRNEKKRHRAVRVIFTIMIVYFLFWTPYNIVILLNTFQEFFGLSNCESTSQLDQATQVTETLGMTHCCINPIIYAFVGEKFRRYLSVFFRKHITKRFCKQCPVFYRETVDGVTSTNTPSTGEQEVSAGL
The assay is described as follows: Calcium mobilization assay. The assay is classed as cell-based. As to conditions: Ca mobilization assay for CCR2; CHOK1-CCR2B-A5 cells; antagonist activity against 20 nM MCP-1; FLIPR, Fluo-4. How it is done: Calcium Mobilization Assay
CHOK1-CCR2B-A5 cells (from Euroscreen) stably overexpressing the human chemokine receptor 2 isoform B were cultured in Nutrient Hams F12 medium supplemented with 5% FBS, 100 U/ml penicillin, 100 μg/ml streptomycin, 400 μg/ml G418 and 5 μg/ml puromycin.
For the assay cells were grown overnight in 384-well black clear flat bottom polystyrene plates (Costar) at 37° C. at 5% CO2. After washing with DMEM, 20 mM Hepes, 2.5 mM probenecid, 0.1% BSA (DMEM assay buffer) cells were loaded with 4 μM Fluo-4 in the same DMEM assay buffer for 2 hours at 30° C. Excess dye was removed and cells were washed with DMEM assay buffer. 384-well compound plates were prepared with DMEM assay buffer/0.5% dimethyl sulfoxide with or without various concentrations of test compounds. Usually compounds were tested for agonist and antagonist activity.
Test compounds were added to the assay plate and agonist activity was monitored as fluorescence for 80 seconds with a FLIPR (488 nm excitation; 510-570 nm emission; Molecular Devices). After 20-30 min. of incubation at 30° C., 20 nM MCP-1 (R&D; Roche) was added and fluorescence was monitored again for 80 seconds. Increases in intracellular calcium are reported as maximum fluorescence after agonist exposure minus basal fluorescence before exposure. Antagonist activity is indicated as inhibitor concentration required for 50% inhibition of specific calcium increases.
(In general: Calcium flux is commonly read through the fluorescence of an indicator in the cells.)

As to `CN(C(=O)[C@H](CCN1CCC2(CC2)[C@H](O)C1)N1CCN(c2ccc(Cl)c(Cl)c2)CCC1=O)C1CC1` [Example 62, (S)—N-Cyclopropyl-2-[4-(3,4-dichloro-phenyl)-7-oxo-[1,4]diazepan-1-yl]-4-((S)-4-hydroxy-6-aza-spiro[2.5]oct-6-yl)-N-methyl-butyramide], the 50% inhibitory concentration (IC50) came out at 330 nM.
Under `NC(=O)[C@H](CCN1CCC2(CC2)[C@H](O)C1)N1CCN(c2ccc(Cl)c(Cl)c2)CCC1=O` [Example 64, (S)-2-[4-(3,4-Dichloro-phenyl)-7-oxo-[1,4]diazepan-1-yl]-4-((S)-4-hydroxy-6-aza-spiro[2.5]oct-6-yl)-butyramide] stands 663 nM.
As for `COC(=O)[C@H](CCN1CCC2(CC2)[C@H](O)C1)N1C[C@@H](C)N(c2ccc(Cl)c(Cl)c2)CCC1=O` [Example 65, (S)-2-[(R)-4-(3,4-dichloro-phenyl)-3-methyl-7-oxo-[1,4]diazepan-1-yl]-4-((S)-4-hydroxy-6-aza-spiro[2.5]oct-6-yl)-butyric acid methyl ester], the figure is 16 nM; as for `COC(=O)[C@H](CCN1CCC2(CC2)[C@H](O)C1)N1C[C@H](C)N(c2ccc(Cl)c(Cl)c2)CCC1=O` [Example 66, (S)-2-[(S)-4-(3,4-dichloro-phenyl)-3-methyl-7-oxo-[1,4]diazepan-1-yl]-4-((S)-4-hydroxy-6-aza-spiro[2.5]oct-6-yl)-butyric acid methyl ester], 546 nM.
With `CC1C(=O)N(CCCN2CCCCC2)CCN1c1ccc(Cl)c(C(F)(F)F)c1` (stereo not drawn) [Example 70, 4-(4-Chloro-3-trifluoromethyl-phenyl)-3-methyl-1-(3-piperidin-1-yl-propyl)-piperazin-2-one], the IC50 was found to be 579 nM.
Consider `CC1C(=O)N(CCCN2CCCCC2)CCN1c1ccc(Cl)c(Cl)c1` (stereo not drawn) [Example 71, 4-(3,4-Dichloro-phenyl)-3-methyl-1-(3-piperidin-1-yl-propyl)-piperazin-2-one], for which the IC50 is 226 nM.
On to `C[C@H]1C(=O)N(CCCN2CCCCC2)CCN1c1ccc(Cl)c(Cl)c1` [Example 72, (S)-4-(3,4-Dichloro-phenyl)-3-methyl-1-(3-piperidin-1-yl-propyl)-piperazin-2-one], for which the IC50 was determined as 306 nM.
Take `C[C@H]1C(=O)N(CCCN2CCC3(CC3)[C@H](O)C2)CCN1c1ccc(Cl)c(Cl)c1` [Example 74, (S)-4-(3,4-Dichloro-phenyl)-1-[3-((S)-4-hydroxy-6-aza-spiro[2.5]oct-6-yl)-propyl]-3-methyl-piperazin-2-one]: the IC50 was found to be 5 nM.
Regarding `C[C@H]1C(=O)N(CCCN2CCC3(CC3)[C@H](O)C2)CCN1c1ccc(Cl)c(C(F)(F)F)c1` [Example 76, (S)-4-(4-Chloro-3-trifluoromethyl-phenyl)-1-[3-((S)-4-hydroxy-6-aza-spiro[2.5]oct-6-yl)-propyl]-3-methyl-piperazin-2-one], the IC50 was 7 nM.
On to `C[C@H]1C(=O)N(CCCN2CCC3(CC3)[C@H](O)C2)CCN1c1ccc(F)c(C(F)(F)F)c1` [Example 78, (S)-4-(4-Fluoro-3-trifluoromethyl-phenyl)-1-[3-((S)-4-hydroxy-6-aza-spiro[2.5]oct-6-yl)-propyl]-3-methyl-piperazin-2-one], for which the IC50 was 13 nM.
As for `C[C@H]1C(=O)N(CCCN2CCC3(CC3)[C@H](O)C2)CCN1c1ccc(F)c(Cl)c1` [Example 79, (S)-4-(3-Chloro-4-fluoro-phenyl)-1-[3-((S)-4-hydroxy-6-aza-spiro[2.5]oct-6-yl)-propyl]-3-methyl-piperazin-2-one], the figure is 29 nM.
In the case of `C[C@H]1C(=O)N(CCCN2CCC3(CC3)[C@H](O)C2)CCN1c1ccc(-c2ccccc2)cc1` [Example 80, (S)-4-Biphenyl-4-yl-1-[3-((S)-4-hydroxy-6-aza-spiro[2.5]oct-6-yl)-propyl]-3-methyl-piperazin-2-one], the IC50 is 318 nM.
For the compound `C[C@H]1C(=O)N(CCCN2CCC3(CC3)[C@H](O)C2)CCN1c1ccc2ccccc2c1` [Example 82, (S)-1-[3-((S)-4-Hydroxy-6-aza-spiro[2.5]oct-6-yl)-propyl]-3-methyl-4-naphthalen-2-yl-piperazin-2-one], the IC50 was determined as 73 nM.
As for `C[C@H]1C(=O)N(CCCN2CCC3(CC3)[C@H](O)C2)CCN1c1ccc(C(F)(F)F)c(Cl)c1` [Example 83, (S)-4-(3-Chloro-4-trifluoromethyl-phenyl)-1-[3-((S)-4-hydroxy-6-aza-spiro[2.5]oct-6-yl)-propyl]-3-methyl-piperazin-2-one], the figure is 2 nM; as for `C[C@H]1C(=O)N(CCCN2CCC3(CC3)[C@H](O)C2)CCN1c1ccc(Cl)c(OC(F)(F)F)c1` [Example 84, (S)-4-(4-Chloro-3-trifluoromethoxy-phenyl)-1-[3-((S)-4-hydroxy-6-aza-spiro[2.5]oct-6-yl)-propyl]-3-methyl-piperazin-2-one], 15 nM; as for `C[C@H]1C(=O)N(CCCN2CCC3(CC3)[C@H](O)C2)CCN1c1ccc(F)c(OC(F)(F)F)c1` [Example 86, (S)-4-(4-Fluoro-3-trifluoromethoxy-phenyl)-1-[3-((S)-4-hydroxy-6-aza-spiro[2.5]oct-6-yl)-propyl]-3-methyl-piperazin-2-one], 33 nM.
Consider `CC[C@H]1C(=O)N(CCCN2CCC3(CC3)[C@H](O)C2)CCN1c1ccc(Cl)c(Cl)c1` [Example 87, (S)-4-(3,4-Dichloro-phenyl)-3-ethyl-1-[3-((S)-4-hydroxy-6-aza-spiro[2.5]oct-6-yl)-propyl]-piperazin-2-one], for which the IC50 came to 53 nM.
As for `CC[C@@H]1C(=O)N(CCCN2CCC3(CC3)[C@H](O)C2)CCN1c1ccc(Cl)c(Cl)c1` [Example 88, (R)-4-(3,4-dichloro-phenyl)-3-ethyl-1-[3-((S)-4-hydroxy-6-aza-spiro[2.5]oct-6-yl)-propyl]-piperazin-2-one], the IC50 is 325 nM.
As for `CC1C(=O)N(CCCN2CCC3(CC3)[C@H](O)C2)CCN1c1cccc(I)c1` (stereo partly drawn) [Example 89, 1-[3-((S)-4-Hydroxy-6-aza-spiro[2.5]oct-6-yl)-propyl]-4-(3-iodo-phenyl)-3-methyl-piperazin-2-one], the figure is 35 nM; as for `CC1C(=O)N(CCCN2CCC3(CC3)[C@H](O)C2)CCN1c1cccc(-c2ccccc2)c1` (stereo partly drawn) [Example 90, 4-Biphenyl-3-yl-1-[3-((S)-4-hydroxy-6-aza-spiro[2.5]oct-6-yl)-propyl]-3-methyl-piperazin-2-one], 508 nM.
Under `C[C@H]1C(=O)N(CCCCN2CCC3(CC3)[C@H](O)C2)CCN1c1ccc(Cl)c(Cl)c1` [Example 94, (S)-4-(3,4-Dichloro-phenyl)-1-[4-((S)-4-hydroxy-6-aza-spiro[2.5]oct-6-yl)-butyl]-3-methyl-piperazin-2-one] stands 8 nM.
Under `C[C@H]1C(=O)N(CCCCN2CCC3(CC3)[C@H](O)C2)CCN1c1cccc(OC(F)(F)F)c1` [Example 95, (S)-1-[4-((S)-4-Hydroxy-6-aza-spiro[2.5]oct-6-yl)-butyl]-3-methyl-4-(3-trifluoromethoxy-phenyl)-piperazin-2-one] stands 13 nM.
Turning to `C[C@H]1C(=O)N(CCCN2CCC3(CC3)[C@H](O)C2)CCN1c1ccc(C(F)(F)F)cc1` [Example 96, (S)-1-[3-((S)-4-Hydroxy-6-aza-spiro[2.5]oct-6-yl)-propyl]-3-methyl-4-(4-trifluoromethyl-phenyl)-piperazin-2-one], the concentration for half-maximal inhibition (IC50) worked out at 26 nM.
As for `C[C@H]1C(=O)N(C[C@@H](O)CN2CCC3(CC3)[C@H](O)C2)CCN1c1ccc(Cl)c(Cl)c1` [Example 99, (S)-4-(3,4-dichloro-phenyl)-1-[(S)-2-hydroxy-3-((S)-4-hydroxy-6-aza-spiro[2.5]oct-6-yl)-propyl]-3-methyl-piperazin-2-one], the figure is 8 nM.
Turning to `C[C@@H]1C(=O)N(C[C@H](O)CN2CCC3(CC3)[C@H](O)C2)CCN1c1ccc(Cl)c(Cl)c1` [Example 100, (R)-4-(3,4-Dichloro-phenyl)-1-[(R)-2-hydroxy-3-((S)-4-hydroxy-6-aza-spiro[2.5]oct-6-yl)-propyl]-3-methyl-piperazin-2-one], the IC50 is 334 nM.
Consider `C[C@H]1C(=O)N(C[C@H](O)CN2CCC3(CC3)[C@H](O)C2)CCN1c1ccc(Cl)c(Cl)c1` [Example 101, (S)-4-(3,4-dichloro-phenyl)-1-[(R)-2-hydroxy-3-((S)-4-hydroxy-6-aza-spiro[2.5]oct-6-yl)-propyl]-3-methyl-piperazin-2-one], for which the 50% inhibitory concentration (IC50) stood at 73 nM.
Take `C[C@H]1C(=O)N(CCCN2CCC3(CC3)[C@H](O)C2)CCN1c1ccc(C(F)(F)F)c(F)c1` [Example 102, (S)-4-(3-Fluoro-4-trifluoromethyl-phenyl)-1-[3-((S)-4-hydroxy-6-aza-spiro[2.5]oct-6-yl)-propyl]-3-methyl-piperazin-2-one]: the 50% inhibitory concentration (IC50) is 6 nM.
